{"source": "patent US20250041272A1", "about": "“COMPOSITIONS AND METHODS FOR TREATING CANCER VIA PTP1B INHIBITION” (priority 2021, published 2025)", "key": {"[1]": {"system": "Stat1 phosphorylation and MyD88 in macrophages", "test": "Transwell co-culture of M1 induced macrophages with tumor cells plus inhibitors (Western blot, qRT-PCR)", "type": "cell-based, mouse", "conditions": "24 hours", "method": "(§1) Peritoneal macrophage isolation and culture. Peritoneal macrophages were done as described previously(65) from 8-week-old C57BL/6J mice (randomized, both male and female). PBS (Gibco) was injected in the mural peritoneal cavity to release the macrophages. After recovering, cells were centrifuged at 1200 rpm for 5 minutes, resuspended in DMEM high glucose, 10% FBS, 1% penicillin-streptomycin (Gibco) and plated. 2 hours after the last step, cells were washed with PBS and maintained in DMEM/F12 supplemented with 10% FBS, 1% penicillin-streptomycin and 20 ng/ml of M-CSF (Prospec) for 2 days. Macrophages were treated for 24 hours with 50 ng/ml LPS (Sigma Millipore), 100 ng/ml IFNγ (BioLegend), 300 ng/ml PAM3CSK4 (InvivoGen), 107 cells/ml heat killed Listeria Monocytogenes (HKLM) (InvivoGen), 100 ng/ml Flagellin Salmonella typhimurium standard (InvivoGen), 10 ng/ml FSL1 (InvivoGen), 2.5 ug/ml ssRNA40 (InvivoGen), 2.5 ug/ml CL 075 (Tocris), 5 μM ODN1826, 50 μM Fludarabine (SelleckChem), 50 nM Momelotinib (SelleckChem), 5 μM BVT948 (Sigma Millipore), 200 μM PTP1b inhibitor III (Santa Cruz Biotechnology Inc.), 5 μM NSC87877 (Santa Cruz Biotechnology Inc.), 50 μM PTP1b inhibitor (Cayman), 1 mM PTP Inhibitor IV (Santa Cruz Biotechnology Inc.), 1 μM TSC401, 300 nM UNC2371 (SelleckChem), 300 nM BMS777607 (SelleckChem), 300 nM LDC1267 (SelleckChem) 1.5 μg/ml recombinant Pros1 (R&D systems), 200 ng/ml recombinant Gas6 (R&D systems) or 10-500 μM Cisplatin (Tocris). All components were added as described in the text. Cell culture. B16F10 (CRL-6475, ATCC), Lewis lung carcinoma (LLC) (CRL-1642, ATCC), KPC2713 (Yuliya Pylayeva-Gupta laboratory, UNC) and MDA-MB-231 (HTB-26, ATCC) were cultured in DMEM high glucose supplemented with 10% FBS, 1% penicillin-streptomycin (Gibco). […]"}, "[2]": {"system": "MyD88 expression in peritoneal macrophages", "test": "Individual TLR agonism of macrophages, MyD88 by qRT-PCR", "type": "cell-based, mouse", "conditions": "24 hours", "method": "(§2) Peritoneal macrophage isolation and culture. Peritoneal macrophages were done as described previously(65) from 8-week-old C57BL/6J mice (randomized, both male and female). PBS (Gibco) was injected in the mural peritoneal cavity to release the macrophages. After recovering, cells were centrifuged at 1200 rpm for 5 minutes, resuspended in DMEM high glucose, 10% FBS, 1% penicillin-streptomycin (Gibco) and plated. 2 hours after the last step, cells were washed with PBS and maintained in DMEM/F12 supplemented with 10% FBS, 1% penicillin-streptomycin and 20 ng/ml of M-CSF (Prospec) for 2 days. […]"}, "[3]": {"system": "macrophage M1 associated gene expression", "test": "Cisplatin treated transwell co-culture of macrophages and B16F10 cells, qRT-PCR", "type": "cell-based, mouse", "method": "Peritoneal macrophage isolation and culture. Peritoneal macrophages were done as described previously(65) from 8-week-old C57BL/6J mice (randomized, both male and female). PBS (Gibco) was injected in the mural peritoneal cavity to release the macrophages. After recovering, cells were centrifuged at 1200 rpm for 5 minutes, resuspended in DMEM high glucose, 10% FBS, 1% penicillin-streptomycin (Gibco) and plated. 2 hours after the last step, cells were washed with PBS and maintained in DMEM/F12 supplemented with 10% FBS, 1% penicillin-streptomycin and 20 ng/ml of M-CSF (Prospec) for 2 days. Macrophages were treated for 24 hours with 50 ng/ml LPS (Sigma Millipore), 100 ng/ml IFNγ (BioLegend), 300 ng/ml PAM3CSK4 (InvivoGen), 107 cells/ml heat killed Listeria Monocytogenes (HKLM) (InvivoGen), 100 ng/ml Flagellin Salmonella typhimurium standard (InvivoGen), 10 ng/ml FSL1 (InvivoGen), 2.5 ug/ml ssRNA40 (InvivoGen), 2.5 ug/ml CL 075 (Tocris), 5 μM ODN1826, 50 μM Fludarabine (SelleckChem), 50 nM Momelotinib (SelleckChem), 5 μM BVT948 (Sigma Millipore), 200 μM PTP1b inhibitor III (Santa Cruz Biotechnology Inc.), 5 μM NSC87877 (Santa Cruz Biotechnology Inc.), 50 μM PTP1b inhibitor (Cayman), 1 mM PTP Inhibitor IV (Santa Cruz Biotechnology Inc.), 1 μM TSC401, 300 nM UNC2371 (SelleckChem), 300 nM BMS777607 (SelleckChem), 300 nM LDC1267 (SelleckChem) 1.5 μg/ml recombinant Pros1 (R&D systems), 200 ng/ml recombinant Gas6 (R&D systems) or 10-500 μM Cisplatin (Tocris). All components were added as described in the text. Cell culture. B16F10 (CRL-6475, ATCC), Lewis lung carcinoma (LLC) (CRL-1642, ATCC), KPC2713 (Yuliya Pylayeva-Gupta laboratory, UNC) and MDA-MB-231 (HTB-26, ATCC) were cultured in DMEM high glucose supplemented with 10% FBS, 1% penicillin-streptomycin (Gibco). GEMM6 (Dr. Alisha Holtzhausen, UNC), KPPC4662 (Dr. Yuliya Pylayeva-Gupta laboratory, UNC), KPPC4548 (Yuliya Pylayeva-Gupta laboratory, UNC) and E0771 (CRL-3461, ATCC) were maintained in RPMI 1640 supplemented with […], 1% penicillin/streptomycin (Gibco) while PyMT cells were cultured in Ham's F-12K with 10% FBS, 1% penicillin-streptomycin (Gibco). Transwell assays were performed in 0.4 μm polyester membrane insert culture plates (Corning). 500,000 cells of each line were plated per well in DMEM/F12 supplemented with 10% FBS, 1% penicillin-streptomycin and 20 ng/ml of M-CSF for culture with mouse macrophages. SC cells (CRL-9855, ATCC) were cultured in IMDM with 10% FBS and 1% penicillin-streptomycin (Gibco). In transwell experiments with the SC cell line, cancer cells were also resuspended in IMDM media.\nqRT-PCR. RNA was isolated using the RNeasy Plus Mini Kit (Quiagen) and cDNA was prepared using the Reverse Transcription System (Promega) with one-hour reverse transcription process. qRT-PCR was done using the PowerUp™ SYBR™ Green Master Mix (Applied Biosystems) on a QuantStudio Pro Real-time PCR system (Applied Biosystems) with a 95° C. pretreatment of 10 min, 50 cycles of 95° C., 10 sec and 60° C., 1 min and melt curve at the end. Analysis was performed with the 2^−ΔΔCT method(136)."}, "LLC tumors": {"system": "LLC tumors", "test": "Subcutaneous LLC tumor model", "type": "in vivo, mouse", "conditions": "BVT948 10 mg/kg or Cisplatin 5 mg/kg intraperitoneal, treatment from 50 mm^3", "method": "(§3) Tumor implantation, treatment and harvest. For animal studies, 1*10^5 B16F10 luciferase-tagged melanoma cells, 1*10^6 GEMM6 melanoma cells or 2*10^6 LCC cells were implanted subcutaneously into C57BL/6J mice (randomized, both males and females, 000664 The Jackson laboratory). When indicated, mice received intraperitoneal injections 7 days after implantation with 100 μl of 5 mg/kg cisplatin (Tocris), 100 μl of 10 mg/kg BVT948 (Tocris) or 100 μl of 30 mg/kg of vemurafenib. 5 mice were used per experimental group and tumors were harvested when they reached 1.5 cm in any direction.\n(§4) Immunohistochemistry analysis. Immunohistochemistry assay was carried out in formalin-fixed, paraffin-embedded 4 μm sections using primary antibodies against F4:80 (AbD Serotec), CD11b (Abcam), CD4 (eBioscience) or CD8a (eBioscience) on a Discovery Ultra Automated IHC staining system (Ventana). Sections were then imaged using a ScanScope XT microscope (Aperio) and quantified using Aperio software."}, "B16F10 tumors": {"system": "B16F10 tumors", "test": "Subcutaneous B16F10 melanoma tumor model", "type": "in vivo, mouse", "conditions": "BVT948 10 mg/kg or Cisplatin 5 mg/kg intraperitoneal, treatment from 50 mm^3", "method": "as §3, §4"}, "[4]": {"system": "Stat1 and MyD88 expression in pro-inflammatory macrophages", "test": "Stat1 or Jak1/2 inhibitor treatment of pro-inflammatory macrophages, qRT-PCR", "type": "cell-based, mouse", "conditions": "Fludarabine 50 μM, Momelotinib 50 nM", "method": "as §2"}, "[5]": {"system": "macrophage MyD88 expression", "test": "Exogenous TAM ligand addition to pro-inflammatory macrophages, MyD88 qRT-PCR", "type": "cell-based, mouse", "conditions": "Pros1 1.5 ug/ml, Gas6 200 ng/ml, compared with transwell co-cultured B16F10 cells", "method": "as §1"}}}
{"molecule": "O=S(=O)(O)c1ccc2cc(N=Nc3cc(S(=O)(=O)O)c4cccnc4c3O)ccc2c1", "note": "[NSC87877]", "values": [{"measurement": "Stat1 phosphorylation at Tyrosine 701 and Serine 727", "setting": "[1]", "value": "increased"}]}
{"molecule": "Pam3CSK4", "values": [{"measurement": "MyD88 expression upon individual TLR agonism", "setting": "[2]", "value": "upregulation of MyD88"}]}
{"molecule": "N.N.[Cl][Pt][Cl]", "note": "[Cisplatin]", "values": [{"measurement": "activation of Mer deficient macrophages", "setting": "[3]; 25 μM Cisplatin, co-cultured with B16F10 tumor cells, no PTP1b inhibitor", "value": "macrophages could be activated even in the presence of tumor cells"}, {"measurement": "M1 associated gene expression, Cisplatin alone", "setting": "[3]; even at 500 μM Cisplatin, wildtype macrophages with B16F10 cells", "value": "did not lead to substantially increased M1 associated gene expression"}, {"measurement": "M1 gene expression in MyD88 knockout macrophages", "setting": "[3]; increasing Cisplatin, with or without BVT948", "value": "Neither increasing concentrations of Cisplatin, nor PTP1 b inhibition, were able to restore M1 gene expression"}, {"measurement": "LLC tumor growth reduction, monotherapy", "setting": "LLC tumors", "value": 30, "unit": "%"}, {"measurement": "B16F10 tumor growth, monotherapy vs vehicle", "setting": "B16F10 tumors", "value": "did not significantly reduce"}]}
{"molecule": "FSL-1", "values": [{"measurement": "MyD88 expression upon individual TLR agonism", "setting": "[2]", "value": "upregulation of MyD88"}]}
{"molecule": "CCc1oc2cc(S(=O)(=O)Nc3ccc(S(=O)(=O)Nc4nccs4)cc3)ccc2c1C(=O)c1cc(Br)c(O)c(Br)c1", "note": "[PTP inhibitor]", "values": [{"measurement": "Stat1 phosphorylation at Tyrosine 701 and Serine 727", "setting": "[1]", "value": "increased"}]}
{"molecule": "N#CCNC(=O)c1ccc(-c2ccnc(Nc3ccc(N4CCOCC4)cc3)n2)cc1", "note": "[Momelotinib]", "values": [{"measurement": "Stat1 expression", "setting": "[4]", "value": "did not significantly alter"}, {"measurement": "MyD88 expression", "setting": "[4]; compared with B16F10 transwell co-culture", "value": "did not significantly alter"}]}
{"molecule": "Pros1: recombinant murine Pros1, TAM family ligand (R&D systems)", "values": [{"measurement": "macrophage MyD88 expression after exogenous ligand addition", "setting": "[5]", "value": "reduced comparably to that of tumor cell secretions"}, {"measurement": "macrophage MyD88 expression after exogenous ligand addition", "setting": "[5]; listed as Recombinant murine Pros1", "value": "suppresses macrophage MyD88 expression similarly to transwell co-culture with B16F10 cells"}]}
{"molecule": "Gas6: recombinant Gas6, TAM family ligand (R&D systems) (protein, UniProt Q14393 31-678, looked up) Growth arrest-specific …: ALLPAREATQFLRPRQRRAFQVFEEAKQGHLERECVEELCSREEAREVFENDPETDYFYPRYLDCINKYGSPYTKNSGFATCVQNLPDQCTPNPCDRKGTQACQDLMGNFFCLCKAGWGGRLCDKDVNECSQENGGCLQICHNKPGSFHCSCHSGFELSSDGRTCQDIDECADSEACGEARCKNLPGSYSCLCDEGFAYSSQEKACRDVDECLQGRCEQVCVNSPGSYTCHCDGRGGLKLSQDMDTCEDILPCVPFSVAKSVKSLYLGRMFSGTPVIRLRFKRLQPTRLVAEFDFRTFDPEGILLFAGGHQDSTWIVLALRAGRLELQLRYNGVGRVTSSGPVINHGMWQTISVEELARNLVIKVNRDAVMKIAVAGDLFQPERGLYHLNLTVGGIPFHEKDLVQPINPRLDGCMRSWNWLNGEDTTIQETVKVNTRMQCFSVTERGSFYPGSGFAFYSLDYMRTPLDVGTESTWEVEVVAHIRPAADTGVLFALWAPDLRAVPLSVALVDYHSTKKLKKQLVVLAVEHTALALMEIKVCDGQEHVVTVSLRDGEATLEVDGTRGQSEVSAAQLQERLAVLERHLRSPVLTFAGGLPDVPVTSAPVTAFYRGCMTLEVNRRLLDLDEAAYKHSDITAHSCPPVEPAAA", "values": [{"measurement": "macrophage MyD88 expression after exogenous ligand addition", "setting": "[5]", "value": "limited effect"}]}
